Our source for the IC50 and Ki values is ChEMBL document CHEMBL5150007, “Zinc enzymes in medicinal chemistry” (Eur J Med Chem, 2021).

Starred links: 1 amine or outer side, 2 acyl side, 3 side chain; linkers in the order of their positions; H or OH if unused. Residues, ends and D or L forms follow the SMILES beside them. *: point of attachment. CO = O=C([*:1])[*:2]; N(Me)OMe = CON(C)*

A short description of test [1]: Inhibition of NDM-1 (unknown origin). Also noted: species or system Homo sapiens.
A short description of test [2]: Inhibition of VIM-2 (unknown origin). Also noted: species or system Homo sapiens.
Test [3] addresses T1, Lethal factor (Bacillus anthracis, UniProt P15917).
T1 sequence (P15917 whole entry): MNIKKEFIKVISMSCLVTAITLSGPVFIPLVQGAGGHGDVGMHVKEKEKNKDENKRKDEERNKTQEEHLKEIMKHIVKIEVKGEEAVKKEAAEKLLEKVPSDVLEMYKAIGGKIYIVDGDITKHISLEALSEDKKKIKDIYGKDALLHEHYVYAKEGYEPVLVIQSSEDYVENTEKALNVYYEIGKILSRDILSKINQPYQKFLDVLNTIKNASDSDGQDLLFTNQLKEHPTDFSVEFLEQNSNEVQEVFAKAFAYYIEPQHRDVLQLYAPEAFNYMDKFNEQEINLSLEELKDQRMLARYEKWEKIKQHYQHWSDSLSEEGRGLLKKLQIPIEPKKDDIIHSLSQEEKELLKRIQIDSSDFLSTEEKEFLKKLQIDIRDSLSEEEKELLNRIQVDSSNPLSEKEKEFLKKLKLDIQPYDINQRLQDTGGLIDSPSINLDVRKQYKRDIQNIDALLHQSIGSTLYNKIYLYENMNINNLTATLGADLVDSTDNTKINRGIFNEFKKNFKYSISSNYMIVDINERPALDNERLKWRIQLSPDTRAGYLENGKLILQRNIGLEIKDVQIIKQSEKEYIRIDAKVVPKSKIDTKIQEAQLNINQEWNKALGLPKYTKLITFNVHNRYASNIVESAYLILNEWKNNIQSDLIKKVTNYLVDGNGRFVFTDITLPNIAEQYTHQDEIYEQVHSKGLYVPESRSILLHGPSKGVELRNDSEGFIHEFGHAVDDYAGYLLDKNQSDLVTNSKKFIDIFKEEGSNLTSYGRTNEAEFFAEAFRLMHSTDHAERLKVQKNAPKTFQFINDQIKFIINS
Description: Binding affinity to Bacillus anthracis lethal factor assessed as inhibition constant.

A short description of test [4]: Inhibition of farnesyltransferase (unknown origin). Details: species or system Homo sapiens.
Test [5] in a line: Inhibition of NDM-1 (unknown origin) using imipenem as substrate by spectrophotometric assay. Also noted: species or system Homo sapiens.
Test [6] deals with Disintegrin and metalloproteinase domain-containing protein 17 (Homo sapiens, UniProt P78536). Description: Inhibition of human ADAM17.
Disintegrin and metalloproteinase domain-containing protein 17, sequence (P78536 whole entry, the tested form may be a part): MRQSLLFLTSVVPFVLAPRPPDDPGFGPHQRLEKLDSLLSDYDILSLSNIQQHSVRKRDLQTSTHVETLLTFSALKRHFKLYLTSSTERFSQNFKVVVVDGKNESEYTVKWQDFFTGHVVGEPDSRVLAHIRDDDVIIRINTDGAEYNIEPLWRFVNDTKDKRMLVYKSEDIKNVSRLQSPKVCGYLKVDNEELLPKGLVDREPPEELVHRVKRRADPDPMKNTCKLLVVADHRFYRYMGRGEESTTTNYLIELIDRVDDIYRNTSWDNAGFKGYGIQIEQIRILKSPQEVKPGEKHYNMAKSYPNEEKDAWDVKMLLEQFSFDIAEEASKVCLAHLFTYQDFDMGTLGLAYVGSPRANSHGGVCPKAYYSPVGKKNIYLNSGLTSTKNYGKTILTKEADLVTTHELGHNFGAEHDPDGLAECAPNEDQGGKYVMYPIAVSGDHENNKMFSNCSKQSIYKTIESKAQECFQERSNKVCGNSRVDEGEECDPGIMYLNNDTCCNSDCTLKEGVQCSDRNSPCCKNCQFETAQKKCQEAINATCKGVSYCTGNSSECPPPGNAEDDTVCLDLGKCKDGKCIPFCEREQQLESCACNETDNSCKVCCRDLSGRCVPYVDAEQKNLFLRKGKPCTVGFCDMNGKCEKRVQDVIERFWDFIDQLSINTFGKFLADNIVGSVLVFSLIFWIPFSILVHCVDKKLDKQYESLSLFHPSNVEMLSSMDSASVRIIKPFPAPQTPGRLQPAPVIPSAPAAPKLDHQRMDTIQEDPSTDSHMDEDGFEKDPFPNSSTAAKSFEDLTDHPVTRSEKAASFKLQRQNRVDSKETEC
For test [7], the target named is T2, Disintegrin and metalloproteinase domain-containing protein 10 (Homo sapiens, UniProt O14672).
T2 sequence (O14672 whole entry): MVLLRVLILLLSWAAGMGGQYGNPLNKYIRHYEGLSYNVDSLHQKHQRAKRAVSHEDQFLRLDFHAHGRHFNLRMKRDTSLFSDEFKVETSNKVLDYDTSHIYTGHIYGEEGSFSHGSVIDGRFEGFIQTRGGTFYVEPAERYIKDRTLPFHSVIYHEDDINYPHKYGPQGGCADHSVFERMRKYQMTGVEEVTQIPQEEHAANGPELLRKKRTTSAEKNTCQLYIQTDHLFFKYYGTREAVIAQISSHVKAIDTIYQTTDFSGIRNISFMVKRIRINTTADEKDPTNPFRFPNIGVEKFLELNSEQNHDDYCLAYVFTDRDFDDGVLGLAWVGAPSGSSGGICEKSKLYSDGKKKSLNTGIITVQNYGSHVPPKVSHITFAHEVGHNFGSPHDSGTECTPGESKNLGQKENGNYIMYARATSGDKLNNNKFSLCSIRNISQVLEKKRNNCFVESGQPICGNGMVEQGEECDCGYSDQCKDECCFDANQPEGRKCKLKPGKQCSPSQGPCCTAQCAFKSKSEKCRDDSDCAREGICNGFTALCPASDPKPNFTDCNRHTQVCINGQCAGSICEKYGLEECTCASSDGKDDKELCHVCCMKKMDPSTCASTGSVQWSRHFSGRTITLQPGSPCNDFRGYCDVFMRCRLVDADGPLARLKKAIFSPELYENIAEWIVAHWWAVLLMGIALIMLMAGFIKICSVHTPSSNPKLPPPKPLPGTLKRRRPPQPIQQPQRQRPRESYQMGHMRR
The experiment in a line: Inhibition of human ADAM10 using (biotin-SPLAQAVRSSSRTP(3H)S-NH2) as a substrate by streptavidin-coated scintillation proximity assay.

The target in the next test is T3, Adenosine deaminase (Homo sapiens, UniProt P00813).
T3 sequence (P00813 whole entry): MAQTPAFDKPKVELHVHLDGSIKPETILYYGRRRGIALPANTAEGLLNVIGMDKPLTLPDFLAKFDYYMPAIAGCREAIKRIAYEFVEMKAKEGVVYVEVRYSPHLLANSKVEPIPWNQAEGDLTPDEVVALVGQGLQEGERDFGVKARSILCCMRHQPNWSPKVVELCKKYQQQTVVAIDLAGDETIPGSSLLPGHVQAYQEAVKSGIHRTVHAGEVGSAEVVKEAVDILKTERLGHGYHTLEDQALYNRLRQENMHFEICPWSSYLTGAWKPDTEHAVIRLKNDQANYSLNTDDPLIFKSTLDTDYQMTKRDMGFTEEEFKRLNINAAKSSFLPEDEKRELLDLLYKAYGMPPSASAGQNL
Description: Binding affinity to ADA (unknown origin) assessed as inhibition constant.

Test [8] concerns the target T1, Lethal factor. The experiment in a line: Inhibition of Bacillus anthracis lethal factor.

Consider `N[C@@H](CN[C@@H](CN[C@@H](CC(=O)O)C(=O)O)C(=O)O)C(=O)O`, for which it took 7000 nM to reach half-maximal inhibition in [1] (IC50).

As for `O=C(O)c1nccn1Cc1ccccc1`, the IC50 in test [2] came out at 0.45 nM; in [1], 66700 nM.

`CON(C)C(=O)N[C@@H](CCCNC(=N)N)C(=O)N[C@@H](CC(C)C)C(=O)N[C@H](C(=O)N[C@@H](CCCNC(=N)N)C(=O)O)C(C)C` ({N(Me)OMe-CO}-RLVR-OH): the inhibitory constant (Ki) on Lethal factor [3] stood at 6.4 nM.

In the case of `CCN(CCCC[C@@H](C[C@@H](OC)c1ccc(F)cc1)C(=O)NO)c1ccc(F)cc1`, the Ki at Lethal factor [3] was 0.27 nM.

As to `NC[C@@H]1O[C@H](O[C@H]2[C@@H](O)[C@H](O[C@@H]3[C@@H](O)[C@H](N)C[C@H](N)[C@H]3O[C@H]3O[C@H](CN)[C@@H](O)[C@H](O)[C@H]3N)O[C@@H]2CO)[C@H](N)[C@@H](O)[C@@H]1O` [FRAMYCETIN], the Ki on Lethal factor [3] amounted to 7 nM.

On to `CCC(C)[C@@H](CO[C@@H](Cc1ccccc1)C(=O)N[C@@H](CCS(C)(=O)=O)C(=O)O)NC[C@@H](N)CS` (some centres not stated), for which the IC50 in test [4] turned out to be 240 nM.

`C[C@@H](CS)C(=O)N1CCC[C@H]1C(=O)O` gave an IC50 in [5] of 7.9 nM.

As for `CNC(=O)[C@@H](NC(=O)C(CCCc1ccccc1)[C@H](C)N(O)C=O)C(C)(C)C` (some centres not stated), the IC50 in [6] worked out at 541 nM; in test [7], 5.3 nM.

With `CCCCCC[C@H]([C@H](C)O)n1cnc2c(N)ncnc21` [(+)-EHNA], on Adenosine deaminase, the inhibition constant (Ki) turned out to be 1 nM.

On Lethal factor [8], `O=C(O[C@@H]1Cc2c(O)cc(O)cc2O[C@@H]1c1cc(O)c(O)c(O)c1)c1cc(O)c(O)c(O)c1` [EPIGALOCATECHIN GALLATE] displayed an IC50 of 97 nM.

A word on the IC50: it is the concentration needed to halve the response being measured. A lower IC50 goes with inhibition by little substance. What is called Ki is a measure of affinity in units of concentration, obtained from inhibition or displacement.
